Assay results taken from US20020102688A1, “Methods and products for the synthesis of oligosaccharide structures on glycoproteins, glycolipids, or as free molecules, and for the isolation of cloned genetic sequences that determine these structures” (The Regents of the University of Michigan, priority 1990, published 2002).

Target: T1, Fuc-TIII (Homo sapiens, UniProt P21217)
T1 construct: showing that this insert is essentially full-length; expressed in transfected cells; host or cells: COS-1 cells (monkey kidney), transient DEAE-dextran transfection, 1% Triton X-100 extract
T1 sequence (P21217 1-361): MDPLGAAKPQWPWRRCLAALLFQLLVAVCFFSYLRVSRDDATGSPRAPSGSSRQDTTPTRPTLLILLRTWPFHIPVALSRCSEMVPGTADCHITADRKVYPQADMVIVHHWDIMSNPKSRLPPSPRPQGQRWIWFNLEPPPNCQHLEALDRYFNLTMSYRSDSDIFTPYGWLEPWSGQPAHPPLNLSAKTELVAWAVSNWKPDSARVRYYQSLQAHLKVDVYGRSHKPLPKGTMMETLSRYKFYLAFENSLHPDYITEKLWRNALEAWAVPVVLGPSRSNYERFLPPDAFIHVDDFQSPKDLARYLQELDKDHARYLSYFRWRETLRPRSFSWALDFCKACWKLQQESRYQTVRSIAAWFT
Experiment: Fucosyltransferase assay, extracts of COS-1 cells expressing the Lewis fucosyltransferase
Assay type: biochemical
Conditions: for Relative Activity (%) with Fuc-TIII: relative product formation rate, N-acetyllactosamine = 100, acceptor 20 mM (2-fucosyllactose 5 mM), GDP-[14C]fucose 3 μM, transfected COS-1 cell extract; for fucose transfer to acceptor: extracts containing the Lewis blood group fucosyltransferase, same conditions as Fuc-TIV
Description: Fucosyltransferase assays were performed in 50 mM MOPS pH 6.5, 25 MM MnCl2 10 MM L-fucose, 5 mM ATP, […] GDP-[^14C]fucose (specific activity of 600,000 cpm/nmol; 35,000 cpm per assay), 2.5 mM acceptor (e.g. 2′-fucosyllactose, N-acetyllactosamine, lactose or lacto-N-biose I), and up to 10 μl of cell extract, in a final volume of 20 μl. When determining α(1,3)FT specific activities achieved during the sib selection process, and in the analysis of the protein A-fucosyltransferase fusion protein experiments, the amount of added cell extract and incubation times were adjusted to yield (linear) reaction rates reflecting accurate specific activities. Reactions were incubated at 37° C. for 2 or 6 hours, and then terminated by the addition of 20 μl of ethanol, followed by dilution with 500 μl of H2O. The terminated, diluted reactions were then centrifuged at 15,000×g for 5 min. Fifty μl of each reaction supernatant was counted to determine total radioactivity, and 200 μl of each was fractionated by Dowex-1 chromatography. The neutral radiolabelled material eluting from the column was then counted directly as a measure of product formation. Enzyme specific activity is defined as pmol of fucose transferred from GDP-fucose to acceptor per mg cell extract protein per hour. Neutral products were also further analyzed as described below by descending paper chromatography and by HPLC to confirm their identity. Parallel reactions were done in the absence of added acceptor to allow correction for transfer to endogenous acceptor molecules and for substrate and product hydrolysis.
Cell extracts containing 1% Triton X-100 were prepared from transfected COS-1 cells. Fucosyltransferase assays were performed in a total volume of 20 μl, and contained 50 mM sodium cacodylate, pH 6.2, 5 mM ATP, 10 mM fucose, 20 mM MnCl2, 3 μM GDP-^14C-fucose, and 5 μl (30 μg protein) of cell extract. Acceptor substrates were added to a final concentration of 20 mM. Reactions were incubated at 37° C. for 1 hour and terminated by addition of 20 μl ethanol, followed by addition of 600 μl of distilled water. An aliquot of each reaction (50 μl) was subjected to scintillation counting to determine total radioactivity in the reaction. Another aliquot (200 μl) was applied to a column containing 400 μl of Dowex IX2-400, formate form. The flow through fraction, and […] of a subsequent water elution, were collected and pooled, and an aliquot was subjected to scintillation counting to quantitate incorporation of radioactive fucose into neutral product. Descending paper chromatography was used to confirm the structure of the product formed with the acceptor N-acetyllactosamine. The neutral product in the Dowex column eluate was concentrated by lyophilization, resuspended in a small volume of water, and fractionated through Whatman No. 40 in phenol/isopropanol/formic acid/water (85:5:10:100, lower layer). After chromatography (40 hours), the air-dried chromatogram was cut into 1 cm strips and the strips eluted into 2 ml of water. Radioactivity in each eluate was determined by scintillation counting after mixing with 10 ml of scintillation cocktail.
Table 2 presents the relative product formation rates obtained with low molecular weight acceptor substrates using cell extracts containing recombinant human α(1,3)fucosyltransferases expressed in transfected COS-1 cells, as described in the preceding sections. Fucosyltransferase assays were performed as described in detail in Lowe et al, J. Biol. Chem., (1991), 266:17467-17477; Weston et al, J. Biol. Chem. (1992), 267:4152-4160; and Kukowska-Latallo et al, Genes. Devel., (1990), 4:1288-1303. For each enzyme, the same extract was used, with saturating amounts of each acceptor oligosaccharide (20 mM, except for 2′-fucosylactose which was used at 5 mM), and GDP-^14C]fucose was present at 3 μM. Reaction times and enzyme amounts were adjusted to ensure a linear rate of product formation (less than 15% of the GDP-fucose substrate consumed). […]

## CC(=O)N[C@@H]1[C@@H](O[C@@H]2O[C@H](CO)[C@H](O)[C@H](O)[C@H]2O)[C@H](O)[C@@H](CO)O[C@@H]1O [lacto-N-biose I]
  Relative Activity (%) with Fuc-TIII: 420%

## Fucα(1,2)Galβ(1,4)Glc [2-fucosyllactose]
  Relative Activity (%) with Fuc-TIII: 254%

## CC(=O)NC1C(O)OC(CO)C(OC2OC(CO)C(O)C(OC3(C(=O)O)CC(O)C(NC(C)=O)C(C(O)C(O)CO)O3)C2O)C1O (stereo not drawn) [α(2,3)sialyllactosamine, NeuAcα(2→3)Galβ(1→4)GlcNAc]
  fucose transfer to acceptor: 297 pmol/mg/h
  Relative Activity (%) with Fuc-TIII: 56%

## OC[C@H]1O[C@@H](O[C@H]2[C@H](O)[C@@H](O)C(O)O[C@@H]2CO)[C@H](O)[C@@H](O)[C@H]1O (stereo partly shown) [lactose]
  Relative Activity (%) with Fuc-TIII: 145%

## CC(=O)N[C@H]1C(O)O[C@H](CO)[C@@H](O[C@@H]2O[C@H](CO)[C@H](O)[C@H](O)[C@H]2O)[C@@H]1O (stereo partly shown) [N-acetyllactosamine]
  fucose transfer to acceptor: 526 pmol/mg/h
  Relative Activity (%) with Fuc-TIII: 100%
